The target in the assay is BTK (Homo sapiens, UniProt Q06187). Kind of assay: biochemical.
The mark [1] stands for this setting: read-out: BTK inhibition (%), 0.75 uM BTK, […] probe 3l, 15 min preincubation.

Where two headings read alike, the source gives them in different places.

BTK, sequence (Q06187 402-655 limits assumed): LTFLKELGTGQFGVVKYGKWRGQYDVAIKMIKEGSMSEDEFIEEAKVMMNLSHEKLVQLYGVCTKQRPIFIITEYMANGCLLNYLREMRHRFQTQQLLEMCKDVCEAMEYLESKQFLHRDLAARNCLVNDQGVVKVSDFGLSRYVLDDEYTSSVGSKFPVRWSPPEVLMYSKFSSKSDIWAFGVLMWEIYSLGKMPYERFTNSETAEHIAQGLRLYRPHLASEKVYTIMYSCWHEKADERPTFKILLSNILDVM

Regarding `O=C(Nc1c(Cl)cncc1Cl)c1ccc(OC(F)F)c(OCC2CC2)c1` [PCM-0095310], under setting [1], the inhibition – broadly, the drop in the measured response relative to a control, in per cent – at 10 µM is 3.1%.
With `Clc1ccc(C(Cn2ccnc2)OCc2ccc(Sc3ccccc3)cc2)c(Cl)c1` (stereo not drawn) [PCM-0095311], the inhibition at 10 µM under setting [1] amounted to 100%.
On the same count and under the same terms, for `Cc1cc(C(=O)NOCCO)c(Nc2ccc(I)cc2F)n(C)c1=O` [PCM-0095312] the value was 2.1%; for `CC(C)c1noc(N2CCC(COc3ccc(-c4ccc(S(C)(=O)=O)cc4)nc3)CC2)n1` [PCM-0095313], -14%; for `CC(/C=C1\SC(=S)N(CC(=O)O)C1=O)=C\c1ccccc1` [PCM-0095314], -47.7%.
With `CCOc1cc2ncc(C#N)c(Nc3ccc(OCc4ccccn4)c(Cl)c3)c2cc1NC(=O)/C=C/CN(C)C` [PCM-0095315], under setting [1], the inhibition at 10 µM stood at 80%.
For the molecule `Cc1c(C(=O)Nc2ccc(N3C[C@@H](C)O[C@@H](C)C3)nc2)cccc1-c1ccc(OC(F)(F)F)cc1` [PCM-0095316], the inhibition at 10 µM under setting [1] is 6.2%.
Still for that read-out and setting: for `C=C[C@@]1(C)CC(=O)[C@]2(O)[C@@]3(C)[C@@H](O)CCC(C)(C)[C@@H]3[C@H](O)[C@H](OC(C)=O)[C@@]2(C)O1` [PCM-0095317] the value was -17.1%; for `Oc1ccc([C@H]2COc3cc(O)ccc3C2)cc1` [PCM-0095319], -6.2%.
On the same count and under the same terms, the figure for `CN1[C@@H]2CC(O)C[C@H]1[C@@H]1O[C@@H]12` (stereo partly drawn) [PCM-0095322] is -2.3%; for `O=C(O)CCC1CCC(c2cc(F)ccc2F)(S(=O)(=O)c2ccc(Cl)cc2)CC1` (stereo not drawn) [PCM-0095325] it is -15.2%.
As to `CNC(=O)Nc1ccc(-c2nc(N3CC4CCC(C3)O4)c3cnn(C4CCC5(CC4)OCCO5)c3n2)cc1` [PCM-0095327], the inhibition at 10 µM under setting [1] came out at 15.9%.
As to `Cc1ccc(O)c([C@H](CCN(C(C)C)C(C)C)c2ccccc2)c1` [PCM-0095328], the inhibition at 10 µM under setting [1] worked out at 1.6%.
Same read-out and setting: for `CCC(C)(Oc1ccc(C2(c3ccc(OC(C)(CC)C(=O)O)cc3)CCCCC2)cc1)C(=O)O` (stereo not drawn) [PCM-0095329] the value was 15.6%.
On the same count and under the same terms, for `O=C(Nc1cccnc1)N1CCC(Cc2cccc(Oc3ccc(C(F)(F)F)cn3)c2)CC1` [PCM-0095330] the value was -4.8%.
On the same count and under the same terms, the figure for `Cc1[nH]nc2ccc(-c3cncc(OC[C@@H](N)Cc4ccccc4)c3)cc12` [PCM-0095333] is -17.2%; for `O=C(O)C1(Cc2cccc(Nc3nccs3)n2)CCC(Oc2cccc(Cl)c2F)CC1` (stereo not drawn) [PCM-0095334] it is 102%; for `O=C(c1ccc(Nc2nccc(-c3cc4ccccc4s3)n2)cc1)N1CCC(N2CCCC2)CC1` [PCM-0095335] it is 86.2%.
On to `CCC(CC)CC1(C(=O)Nc2ccccc2SC(=O)C(C)C)CCCCC1` [PCM-0095336], for which, under setting [1], the inhibition at 10 µM turned out to be 6.2%.
Same read-out and setting: the figure for `O=C(Nc1ccccc1Br)N[C@@H]1CCN(c2ccc(C(F)(F)F)cn2)C1` [PCM-0095337] is -17.1%; for `CN(C[C@@H]1COCCO1)S(=O)(=O)Nc1ccc2ccc3ncc(-c4cnn(C)c4)cc3c(=O)c2c1` [PCM-0095338] it is 33.1%.
Turning to `Cc1ccc(Sc2cncc3sc(C(N)=O)cc23)cc1` [PCM-0095339], under setting [1], the inhibition at 10 µM is -3.9%.
Turning to `O=C(O)CCCCC(CCSCc1ccccc1)SCc1ccccc1` (stereo not drawn) [PCM-0095341], the inhibition at 10 µM under setting [1] is -39.7%.
Still for that read-out and setting: the figure for `Cn1cc(/C=C2\C(=O)Nc3cccnc32)c2ccccc21` [PCM-0095342] is 22.8%; for `Cc1cnc(-c2cc(N3CCN(C(=O)CCS(C)(=O)=O)CC3)ncc2Cl)c(C)c1` [PCM-0095343] it is 7.8%; for `COc1cc(NC(=O)c2ccccn2)ccc1Cl` [PCM-0095344] it is 15.6%.
For `O=C(NCC1CCOCC1)c1cnc(Nc2ccc(Cl)cc2Cl)nc1C(F)(F)F` [PCM-0095345], the inhibition at 10 µM (read-out: BTK inhibition (%)) is -9.3%.
Consider `O=S(=O)(c1ccccc1)c1cnc2c(N3CCNCC3)cccc2c1` [PCM-0095346], for which the inhibition at 10 µM under setting [1] was 3.1%.
As for `CN(C)c1ccc(C(=O)NCCCCCCC(=O)NO)cc1` [PCM-0095347], the inhibition at 10 µM under setting [1] was determined as 4.7%.
On to `OCc1ccc(-c2ccc(-c3ccc(CO)s3)o2)s1` [PCM-0095348], for which the inhibition at 10 µM under setting [1] turned out to be 1.6%.
As for `Cc1cc(F)c(Nc2ncnc3cc(OCc4ccccc4)ccc23)cc1O` [PCM-0095349], the inhibition at 10 µM under setting [1] was 46.9%.
Still for that read-out and setting: the figure for `CC(=O)Nc1cccc(-n2c(=O)n(C3CC3)c(=O)c3c(Nc4ccc(I)cc4F)n(C)c(=O)c(C)c32)c1` [PCM-0095350] is -10.3%.
Still for that read-out and setting: the figure for `O=C(Nc1ccccc1)Nc1ccc(-c2ccc(C(=O)[C@@H]3CCC[C@H]3C(=O)O)cc2)cc1` [PCM-0095351] is 22.6%; for `OC(CN1CCN(c2cccc(Cl)c2)CC1)C(c1ccccc1)c1ccccc1` (stereo not drawn) [PCM-0095352] it is 37.4%; for `CC(=O)O[C@]1(C(C)=O)CC[C@H]2[C@@H]3C[C@H](C)C4=CC(=O)CC[C@]4(C)[C@H]3CC[C@@]21C` [PCM-0095356] it is -18.7%.
For `O=C1NC(=O)/C(=C/c2ccc3c(c2)OC(F)(F)O3)S1` [PCM-0095357], under setting [1], the inhibition at 10 µM was determined as 9.7%.
Still for that read-out and setting: the figure for `NC[C@@H]1O[C@H](O[C@H]2[C@@H](O)[C@H](O[C@@H]3[C@@H](O)[C@H](N)C[C@H](N)[C@H]3O[C@H]3O[C@H](CN)[C@@H](O)[C@H](O)[C@H]3N)O[C@@H]2CO)[C@H](N)[C@@H](O)[C@@H]1O` [PCM-0095358] is 4.3%; for `O=C1NC(=O)/C(=C\c2ccc(-c3ccc(F)cc3)o2)S1` [PCM-0095359] it is 11%; for `CC(C)c1onc(-c2c(Cl)cccc2Cl)c1COc1ccc(/C=C/c2cccc(C(=O)O)c2)c(Cl)c1` [PCM-0095360] it is 52.4%.
`COc1cc2ncnc(Nc3ccc(Cl)cc3F)c2cc1OC` [PCM-0095361]: under setting [1], the inhibition at 10 µM was determined as 31%.
Same read-out and setting: the figure for `CNC(=O)c1cccc(-c2ccc3c(N4CCOC[C@@H]4C)nc(N4CCOC[C@@H]4C)nc3n2)c1` [PCM-0095362] is -2.8%; for `NC(=O)c1cccc(-c2cc(Nc3ccc(OC(F)(F)F)cc3)ncn2)c1` [PCM-0095363] it is -37.9%; for `CC(C)(O)CC(=O)NCCn1ccc2ncnc(Nc3ccc(Oc4cccc(C(F)(F)F)c4)c(Cl)c3)c21` [PCM-0095364] it is 73.8%.
Consider `COc1cc(NC(=O)c2ccc(-c3ccc(Cl)cc3)o2)cc(OC)c1` [PCM-0095366], for which the inhibition at 10 µM under setting [1] turned out to be 56.8%.
As to `Cc1ccc(-n2sc(=O)n(Cc3ccc(F)cc3)c2=O)cc1` [PCM-0095367], the inhibition at 10 µM under setting [1] was -12.5%.
The same measure, in the same setting: the figure for `CCN(C(=O)c1c(O)c2c(Cl)cccc2n(C)c1=O)c1ccccc1` [PCM-0095368] is 11%; for `N#CC[C@@H](C1CCCC1)n1cc(-c2ncnc3[nH]ccc23)cn1` [PCM-0095369] it is 15.9%; for `CNC(=O)c1ccc(-c2cnc3ncc(Cc4ccc5ncccc5c4)n3n2)cc1F` [PCM-0095370] it is -24.7%.
As for `Cn1cc(-c2[nH]c3cc(NC(=O)[C@H](N)C4CCCCC4)cc4c3c2C=NNC4=O)cn1` [PCM-0095372], the inhibition at 10 µM under setting [1] turned out to be 111%.
Same read-out and setting: for `CCn1c(=O)c2c(nc(/C=C/c3ccc(OC)c(OC)c3)n2C)n(CC)c1=O` [PCM-0095373] the value was -25.7%; for `CN1CCN(C(=O)c2cc3cc(Cl)ccc3[nH]2)CC1` [PCM-0095374], -2.1%.
